Our source for the EC50 and Emax values is patent publication US9834542B2, “LXR modulators” (BRISTOL-MYERS SQUIBB COMPANY, priority 2013, dated 2017).

The target of this assay is T1, LXRβ (Homo sapiens, UniProt P55055).
T1 construct: Co-transfection expression plasmids, comprising full-length LXRα (pCMX-h LXRα[…] or LXRβ (pCMX-hLXRβ)); expressed in transfected cells; host or cells: CV-1 African Green Monkey Kidney Cells
T1 sequence (P55055 1-460): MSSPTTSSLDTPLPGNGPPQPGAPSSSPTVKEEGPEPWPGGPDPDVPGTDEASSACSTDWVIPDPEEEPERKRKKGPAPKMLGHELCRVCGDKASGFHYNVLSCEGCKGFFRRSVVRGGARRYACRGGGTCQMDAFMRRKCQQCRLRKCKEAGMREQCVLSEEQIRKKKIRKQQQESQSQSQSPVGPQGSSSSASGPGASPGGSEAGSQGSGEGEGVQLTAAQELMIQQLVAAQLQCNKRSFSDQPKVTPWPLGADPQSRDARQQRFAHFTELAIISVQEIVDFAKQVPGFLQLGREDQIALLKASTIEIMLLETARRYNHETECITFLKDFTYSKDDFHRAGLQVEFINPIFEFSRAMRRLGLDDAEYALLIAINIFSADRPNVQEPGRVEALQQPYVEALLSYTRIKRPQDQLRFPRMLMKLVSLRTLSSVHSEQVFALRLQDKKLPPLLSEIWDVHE
T1 sequence (P19793 1-462 partner): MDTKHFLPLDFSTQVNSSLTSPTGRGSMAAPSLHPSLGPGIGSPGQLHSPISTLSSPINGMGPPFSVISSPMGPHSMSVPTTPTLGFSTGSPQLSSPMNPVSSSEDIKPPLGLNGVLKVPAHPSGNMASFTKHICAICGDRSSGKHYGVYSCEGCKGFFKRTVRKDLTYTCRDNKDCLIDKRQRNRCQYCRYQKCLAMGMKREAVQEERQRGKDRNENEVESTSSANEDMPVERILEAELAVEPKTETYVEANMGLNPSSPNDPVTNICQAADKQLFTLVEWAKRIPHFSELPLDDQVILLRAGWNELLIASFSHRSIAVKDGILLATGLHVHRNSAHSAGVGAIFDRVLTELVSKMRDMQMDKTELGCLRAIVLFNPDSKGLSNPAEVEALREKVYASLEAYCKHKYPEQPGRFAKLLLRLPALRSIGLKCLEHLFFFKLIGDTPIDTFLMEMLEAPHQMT
As to the kind of experiment: Co-transfection assay (LXRE luciferase reporter), LXRβ. The class given is cell-based. The conditions noted are these: for pEC50: CV-1 cells transfected with pCMX-hLXRβ and LXREx1-Tk-Luciferase, 20 hours incubation; for Emax: LXRβ co-transfection, relative to high control 1-(2,4-difluorobenzyl)-2-oxo-6-(4-phenoxyphenyl)-4-(trifluoromethyl)-1,2-dihydropyridine-3-carbonitrile, read-out: % Efficacy. From the text: To measure the ability of compounds to activate or inhibit the transcriptional activity of LXR in a cell based assay, the co-transfection assay was used. It has been shown that LXR functions as a heterodimer with RXR. For the co-transfection assay, expression plasmids for LXRα and LXRβ are introduced separately via transient transfection into mammalian cells along with a luciferase reporter plasmid that contains one copy of a DNA sequence that is bound by LXR-RXR heterodimers (LXRE; Willy, P. et. al. 1995). LXRs heterodimerize with the endogenous RXR. Treatment of transfected cells with an LXR agonist increases the transcriptional activity of LXR, which is measured by an increase in luciferase activity.
CV-1 African Green Monkey Kidney Cells
Co-transfection expression plasmids, comprising full-length LXRα (pCMX-h LXRα[…] or LXRβ (pCMX-hLXRβ), reporter plasmid (LXREx1-Tk-Luciferase), and control (pCMX-Galactosidase expression vector) (Willey et al. Genes & Development 9 1033-1045 (1995)).
CV-1 cells were prepared 24 hours prior to the experiment by plating them into T-175 flasks or 500 cm^2 dishes in order to achieve 70-80% confluency on the day of the transfection. The number of cells to be transfected was determined by the number of plates to be screened. Each well of a 384 well plate requires 1.5×10^4 cells. DNA Transfection Reagent was prepared by mixing the required plasmid DNAs with a cationic lipid transfection reagent Transit 2020 (Mirus Bio) for CV1 by following the instructions provided with the reagents. Optimal DNA amounts were determined empirically per cell line and size of vessel to be transfected. For each T175 cm^2 flask a total of 59 ug for CV1 of DNA, 133 uL Transit2020 and 4.5 mL DMEM for CV1 was mixed and added. Cells were then incubated at least 5 hours at 37° C. to prepare screening cells.
Luciferase assay reagent (*Steady-Glo Luciferase Assay System by Promega, CAT#E2550) was prepared by combining before use:
Assay plates were prepared by dispensing 5 μL of compound per well of a 384 well plate to achieve final compound concentration of 10 μM and no more than 0.5% DMSO. Media was removed from the screening cells, the cells trypsinized, harvested cells by centrifugation, counted, and plated at a density of approximately 1.5×10^4 cells in the 384 well assay plate prepared above in a volume of about 95 uL. Assay plates containing both compounds and screening cells (100 μL in total volume) were incubated for 20 hours at 37° C.
After incubation with compounds, media was removed from the cells and luciferase assay reagent (50 μL/well) added. After ˜2 minutes at ambient temperature, the assay plates were read on a luminometer (PE Biosystems Northstar reader with on-board injectors, or Envision(Perkin Elmer) or equivalent).
The LXR/LXRE co-transfection assay can be used to establish the EC50/IC50 values for potency and percent activity or inhibition for efficacy. Efficacy defines the activity of a compound relative to a high control 1-(2,4-difluorobenzyl)-2-oxo-6-(4-phenoxyphenyl)-4-(trifluoromethyl)-1,2-dihydropyridine-3-carbonitrileor a low control (DMSO/vehicle). The dose response curves are generated from a 11 point curve with concentrations differing by ½ LOG units. Each point represents the average of 2 wells of data from duplicate 384 well plate.
The data from this assay is fitted to the following equation, from which the EC50 value may be solved: Y=Bottom+(Top−Bottom)/(1+10^((logEC50-X)*HillSlope)).
The EC50/IC50 is therefore defined as the concentration at which an agonist or antagonist elicits a response that is halfway between the Top (maximum) and Bottom (baseline) values. The EC50/IC50 values represented are the averages of at least 2 and normally 3 independent experiments. […]
A general note: Reporter assays use an easily measured gene product as a stand-in for the process of interest.

pEC50: −log10 of the molar value.

As usually defined, the pEC50 is the negative decadic logarithm of the EC50, by convention in mol/L. In the case of `CCC(F)(F)c1cn(-c2ccc(-c3cccc(S(=O)(=O)NC)c3)cc2-n2nncc2-c2ccc(OC(F)(F)F)cc2)c(C)n1` [Example 185, 4′-[4-(1,1-difluoropropyl)-2-methyl-1H-imidazol-1-yl]-N-methyl-3′-(5-{4-[(trifluoromethyl)oxy]phenyl}-1H-1,2,3-triazol-1-yl)biphenyl-3-sulfonamide], the pEC50 is 6.53 and the Emax came to 77%.
For `Cc1ncc(-c2oc(C)nc2-c2cc(-c3cc(F)c(CO)c(S(C)(=O)=O)c3)ccc2-n2cc(C(F)(F)F)nc2C)cn1` [Example 428, (3-fluoro-4′-(2-methyl-4-(trifluoromethyl)-1H-imidazol-1-yl)-3′-(2-methyl-5-(2-methylpyrimidin-5-yl)oxazol-4-yl)-5-(methylsulfonyl)biphenyl-4-yl)methanol], the pEC50 is 5.51 and the Emax was 50%.
For `Cc1nc(C(F)(F)F)cn1-c1ccc(-c2cccc(S(C)(=O)=O)c2)cc1-n1nncc1-c1ccc2occc2c1` [Example 86, 5-(1-benzofuran-5-yl)-1-{3′-(methylsulfonyl)-4-[2-methyl-4-(trifluoromethyl)-1H-imidazol-1-yl]biphenyl-3-yl}-1H-1,2,3-triazole], the pEC50 was 6.23 and the Emax was 77%.
Take `Cc1nc(-c2cc(-c3cc(F)c(CO)c(S(C)(=O)=O)c3)ccc2-n2cc(C(F)(F)F)nc2C)c(-c2ccc(F)c(Cl)c2)o1` [Example 509, (3′-(5-(3-chloro-4-fluorophenyl)-2-methyloxazol-4-yl)-3-fluoro-4′-(2-methyl-4-(trifluoromethyl)-1H-imidazol-1-yl)-5-(methylsulfonyl)biphenyl-4-yl)methanol]: the pEC50 is 7.24 and the Emax worked out at 70%.
Turning to `CNS(=O)(=O)c1cccc(-c2ccc(-n3cc(C(F)(F)F)nc3C)c(-c3nc(C)oc3-c3ccc(OC(F)F)cc3)c2)c1` [Example 540, 3′-(5-(4-(difluoromethoxy)phenyl)-2-methyloxazol-4-yl)-N-methyl-4′-(2-methyl-4-(trifluoromethyl)-1H-imidazol-1-yl)-[1,1′-biphenyl]-3-sulfonamide], the pEC50 is 7.55 and the Emax was 106%.
In the case of `Cc1nc(-c2cc(-c3cc(F)c(CO)c(S(C)(=O)=O)c3)ccc2-n2cc(C(F)(F)F)nc2C)c(-c2ccc(OC3CCCCC3)nc2)o1` [Example 409, (3′-(5-(6-(cyclohexyloxy)pyridin-3-yl)-2-methyloxazol-4-yl)-3-fluoro-4′-(2-methyl-4-(trifluoromethyl)-1H-imidazol-1-yl)-5-(methylsulfonyl)biphenyl-4-yl)methanol], the pEC50 is 6.89 and the Emax was 45%.
Taken in the same sequence, the figures for `Cc1nc(C(F)(F)F)cn1-c1ccc(-c2cccc(S(C)(=O)=O)c2)cc1-n1nncc1-c1ccc(OC(F)(F)F)cc1Cl` [Example 68, 5-{2-chloro-4-[(trifluoromethyl)oxy]phenyl}-1-{3′-(methylsulfonyl)-4-[2-methyl-4-(trifluoromethyl)-1H-imidazol-1-yl]biphenyl-3-yl}-1H-1,2,3-triazole] were 6.51 and 80%.
Regarding `Cc1nc(C(F)F)cn1-c1ccc(-c2cccc(S(=O)(=O)N(C)C)c2)cc1-n1nncc1C(C)c1ccc(Cl)cc1` (stereo not shown) [Example 132, 3′-{5-[1-(4-chlorophenyl)ethyl]-1H-1,2,3-triazol-1-yl}-4′-[4-(difluoromethyl)-2-methyl-1H-imidazol-1-yl]-N,N-dimethylbiphenyl-3-sulfonamide], the pEC50 is 6.37 and the Emax was 61%.
Taken in the same sequence, the figures for `Cc1nc(C(F)(F)F)cn1-c1ccc(-c2cccc(S(C)(=O)=O)c2)cc1-n1nncc1-c1ccc2[nH]ccc2c1` [Example 45, 5-(1-{3′-(methylsulfonyl)-4-[2-methyl-4-(trifluoromethyl)-1H-imidazol-1-yl]biphenyl-3-yl}-1H-1,2,3-triazol-5-yl)-1H-indole] were 5.74 and 53%.
Turning to `COc1ccc(-c2cnnn2-c2cc(-c3cccc(S(C)(=O)=O)c3)ccc2-n2cc(C(F)(F)F)nc2C)c(C)c1` [Example 24, 5-[2-methyl-4-(methyloxy)phenyl]-1-{3′-(methylsulfonyl)-4-[2-methyl-4-(trifluoromethyl)-1H-imidazol-1-yl]biphenyl-3-yl}-1H-1,2,3-triazole], the pEC50 was 6.29 and the Emax was determined as 90%.
For the compound `Cc1nc(-c2cc(-c3cccc(S(C)(=O)=O)c3)ccc2-n2cc(C(F)(F)F)nc2C)c(-c2ccc3c(c2)C(O)C(F)(F)O3)o1` (stereo not shown) [Example 368, 2,2-difluoro-5-(2-methyl-4-(4-(2-methyl-4-(trifluoromethyl)-1H-imidazol-1-yl)-3′-(methylsulfonyl)biphenyl-3-yl)oxazol-5-yl)-2,3-dihydrobenzofuran-3-ol], the pEC50 is 6.33 and the Emax was 77%.
For the compound `Cc1nc(C(F)(F)F)cn1-c1ccc(-c2cccc(S(C)(=O)=O)c2)cc1-n1nncc1C1(c2ccc(Cl)cc2)CC1` [Example 112, 5-[1-(4-chlorophenyl)cyclopropyl]-1-{3′-(methylsulfonyl)-4-[2-methyl-4-(trifluoromethyl)-1H-imidazol-1-yl]biphenyl-3-yl}-1H-1,2,3-triazole], the pEC50 is 6.01 and the Emax worked out at 53%.
`Cc1nc(C(F)(F)F)cn1-c1ccc(-c2cc(F)c(CO)c(S(C)(=O)=O)c2)cc1-n1nncc1Cc1cccc(Cl)c1` [Example 120, (3′-{5-[(3-chlorophenyl)methyl]-1H-1,2,3-triazol-1-yl}-3-fluoro-5-(methylsulfonyl)-4′-[2-methyl-4-(trifluoromethyl)-1H-imidazol-1-yl]biphenyl-4-yl)methanol]: the pEC50 was 6.10 and the Emax is 91%.
Consider `Cc1nc(C(F)(F)F)cn1-c1ccc(-c2cccc(S(C)(=O)=O)c2)cc1-c1ocnc1Cc1ccc(Cl)cc1` [Example 634, 4-(4-chlorobenzyl)-5-(4-(2-methyl-4-(trifluoromethyl)-1H-imidazol-1-yl)-3′-(methylsulfonyl)-[1,1′-biphenyl]-3-yl)oxazole], for which the pEC50 was 6.60 and the Emax was determined as 68%.
